Test results published in ChEMBL document CHEMBL3817836, “One small molecule as a theranostic agent: naphthalimide dye for subcellular fluorescence localization and photodynamic therapy in vivo” (Medchemcomm, 2016).
The source made the active and inactive calls. The calls are words filed in the database; no cut-off is given here.

Tests used:
[1] = Toxicity against human MCF7 cells assessed as reduction in cell viability measured after 48 hrs by MTT assay; type: cell-based
MCF7 [2] = experiment: Photo-cytotoxicity against human MCF7 cells assessed as reduction in cell viability incubated for 48 hrs followed by 28.8 J/cm2 laser irradiation for 20 mins by MTT assay; type: functional, cell-based; details: MCF7, light or radiation study
MCF7 [3] = experiment: Photo-cytotoxicity against human MCF7 cells assessed as induction of cell death incubated for 48 hrs followed by 28.8 J/cm2 laser irradiation dose 20 mins by MTT assay; type: functional, cell-based
MKN-45 = experiment: Photo-cytotoxicity against human MKN45 cells assessed as induction of cell death incubated for 48 hrs followed by 28.8 J/cm2 laser irradiation dose 20 mins by MTT assay; type: functional, cell-based
HCT-116 = experiment: Photo-cytotoxicity against human HCT116 cells assessed as induction of cell death incubated for 48 hrs followed by 28.8 J/cm2 laser irradiation dose 20 mins by MTT assay; type: functional, cell-based
A-375 [4] = experiment: Photo-cytotoxicity against human A375 cells assessed as induction of cell death incubated for 48 hrs followed by 28.8 J/cm2 laser irradiation dose 20 mins by MTT assay; type: functional, cell-based
[5] = Cellular uptake in mitochondria of human […] cells at 2.5 uM incubated for 48 hrs followed by 28.8 J/cm2 laser irradiation for 20 mins by Mitotracker Red dye based confocal microscopy; type: ADME
[6] = Cellular uptake in endoplasmic reticulum of human […] cells at 2.5 uM incubated for 48 hrs followed by 28.8 J/cm2 laser irradiation for 20 mins by ER tracker Red dye based confocal microscopy; type: ADME, cell-based
A-375 [7] = experiment: Antitumor activity against human A375 cells xenografted in nude mouse assessed as tumor size at 5 mg/kg administered twice week measured after 21 days (reference value: 4.31 +/- 0.38); type: functional
[8] = Cellular uptake in lysosome of human […] cells at 2.5 uM incubated for 48 hrs followed by 28.8 J/cm2 laser irradiation for 20 mins by lysosome Red dye based confocal microscopy; type: ADME, cell-based
[9] = Cellular uptake in nucleus of human […] cells at 2.5 uM incubated for 48 hrs followed by 28.8 J/cm2 laser irradiation for 20 mins by DAPI dye based confocal microscopy; type: ADME, cell-based
A-375 [10] = experiment: Antitumor activity against human A375 cells xenografted in nude mouse exposed to 28.8 J/cm2 laser irradiation assessed as tumor size at 5 mg/kg administered twice week measured after 21 days (reference value: 4.31 +/- 0.38); type: functional
Mus musculus [11] = experiment: Toxicity in nude mouse xenografted with human A375 cells exposed to 28.8 J/cm2 laser irradiation assessed as change in body weight at 5 mg/kg administered twice a week measured after 21 days; type: organism-based, A-375; details: in vivo, 504 h
Mus musculus [12] = experiment: Toxicity in nude mouse xenografted with human A375 cells assessed as change in body weight at 5 mg/kg administered twice a week measured after 21 days; type: organism-based, A-375; details: in vivo, 504 h
Mus musculus [13] = experiment: Toxicity in nude mouse xenografted with human A375 cells assessed as tissue lesions at 5 mg/kg by hematoxylin-eosin staining method; type: organism-based, A-375; details: in vivo
Mus musculus [14] = experiment: Toxicity in nude mouse xenografted with human A375 cells exposed to 28.8 J/cm2 laser irradiation assessed as tissue lesions at 5 mg/kg by hematoxylin-eosin staining method; type: organism-based, A-375; details: in vivo
A-375 [15] = experiment: Induction of apoptosis in human A375 cells exposed to 28.8 J/cm2 laser irradiation assessed as increase in intracellular ROS using DCFH-DA after 4 hrs by spectrofluorimetric method; type: functional, cell-based
A-375 [16] = experiment: Induction of apoptosis in human A375 cells exposed to 28.8 J/cm2 laser irradiation assessed as increase in intracellular ROS using DCFH-DA after 12 hrs by spectrofluorimetric method; type: functional, cell-based
A-375 [17] = experiment: Induction of apoptosis in human A375 cells exposed to 28.8 J/cm2 laser irradiation assessed as increase in caspase3 cleavage by western blot analysis; type: functional, cell-based; details: TDE = time-dependent effect
A-375 [18] = experiment: Induction of apoptosis in human A375 cells exposed to 28.8 J/cm2 laser irradiation assessed as increase in PARP cleavage by western blot analysis; type: functional, cell-based; details: TDE = time-dependent effect
A-375 [19] = experiment: Induction apoptosis in human A375 cells xenografted into nude mouse exposed to 28.8 J/cm2 laser irradiation assessed as increase in cleaved capase-3 level at 5 mg/kg administered twice week measured after 21 days by immunohistochemistry assay; type: functional, organism-based
A-375 [20] = experiment: Induction of apoptosis in human A375 cells exposed to 28.8 J/cm2 laser irradiation assessed as nuclear condensation measured after 12 hrs by TUNEL assay; type: functional, cell-based
A-375 [21] = experiment: Induction of apoptosis in human A375 cells exposed to 28.8 J/cm2 laser irradiation assessed as nuclear fragmentation measured after 12 hrs by TUNEL assay; type: functional, cell-based
A-375 [22] = experiment: Induction of apoptosis in human A375 cells exposed to 28.8 J/cm2 laser irradiation assessed as apoptotic bodies measured after 12 hrs by TUNEL assay; type: functional, cell-based
A-375 [23] = experiment: Induction apoptosis in human A375 cells xenografted into nude mouse exposed to 28.8 J/cm2 laser irradiation at 5 mg/kg administered twice week measured after 21 days by TUNEL assay; type: functional, organism-based
A-375 [24] = experiment: Induction apoptosis in human A375 cells xenografted into nude mouse at 5 mg/kg administered twice week measured after 21 days by TUNEL assay; type: functional, organism-based
A-375 [25] = experiment: Cellular uptake in human A375 cells at 2.5 uM incubated for 48 hrs followed by 28.8 J/cm2 laser irradiation for 20 mins by fluorescence microscopic imaging method; type: ADME, cell-based; details: a-375, 48 h

Work on `O=c1c2ccc3sc4ccccc4c4ccc(c(=O)n1CCOCCO)c2c34` yielded an IC50 at 48 h [1] of 18.2 µM and an IC50 (MCF7 [2]) of 1.4 µM.

In the case of `O=C1c2cccc3c2c(cc2c4cc(Br)ccc4sc32)C(=O)N1CCOCCO`, the IC50 at 48 h [1] is reported as over 50 µM and the IC50 (MCF7 [2]) is reported as 18.5 µM.

With `O=c1c2ccc3sc4ccc(Br)cc4c4ccc(c(=O)n1CCOCCO)c2c34` the IC50 at 48 h [1] was over 50 µM, the IC50 (MCF7 [2]) was 2.65 µM and the Activity (MCF7 [3]) was “Dose-dependent effect”. The Activity (MKN-45) was “Dose-dependent effect”, the Activity (HCT-116) was “Dose-dependent effect” and the Activity (A-375 [4]) was “Dose-dependent effect”. The Drug uptake [5] was “Active”, the Drug uptake [6] was “Not Active” and the “fold change (FC)” value (A-375 [7]) was 3. The Drug uptake [8] was “Not Active”, the Drug uptake [9] was “Not Active” and the “fold change (FC)” value (A-375 [10]) was 0.5. For the same compound, the Activity (Mus musculus [11]) was “Non-toxic”, the Activity (Mus musculus [12]) was “Non-toxic” and the Activity (Mus musculus [13]) was “Toxic”. For the same compound, the Activity (Mus musculus [14]) was “Toxic”, the Activity (A-375 [15]) was “Active” and the Activity (A-375 [16]) was “inactive”. The Activity (A-375 [17]) was “tde”, the Activity (A-375 [18]) was “tde” and the Activity (A-375 [19]) was “Active”. For the same compound, the Activity (A-375 [20]) was “Active”, the Activity (A-375 [21]) was “Active” and the Activity (A-375 [22]) was “Active”. The Activity (A-375 [23]) was “Active”, the Activity (A-375 [24]) was “inactive” and the Drug uptake (A-375 [25]) was “Active”.

For `O=C1c2cccc3c2c(cc2c4ccccc4sc32)C(=O)N1CCOCCO`, the IC50 at 48 h [1] was 18.8 µM and the IC50 (MCF7 [2]) was 11.4 µM.
